According to PMC4352439, “Safety Evaluation of Chinese Medicine Injections with a Cell Imaging-Based Multiparametric Assay Revealed a Critical Involvement of Mitochondrial Function in Hepatotoxicity” (Evidence-based Complementary and Alternative Medicine : eCAM, 2015):
“And” between values parts separate entries of the source, which are not always exact repeats. Equal values may be shown once. Read-outs that look alike come from different tables or passages of the source.

How the values were obtained:
[1] = tested on: HepG2 cells; test: multiparametric cell-based HCA hepatotoxicity assay; design: species or system human; conditions: for IC50: HepG2, 24-hour incubation
[2] = design: method as in earlier work; conditions: Operetta assay protocol; read-out: median concentration (IC50); cited from earlier work

Compound | cell nucleuses (Hoechst 33342) in representative images ([1]; 3 μM) | mitochondrial mass (MS), intensity of Mitotracker Deep Red FM in representative images ([1]; 3 μM) | increase of plasma membrane permeability (PMP) ([1]; 30 μM) [fold] | IC50 ([1]; read-out: IC50 of cell number (CN)) [µM] | IC50 ([1]; read-out: IC50 of mitochondrial mass (MS)) [µM] | IC50 ([1]; read-out: IC50 of mitochondrial membrane potential (MMP)) | IC50 ([1]; read-out: IC50 of nuclear area (NA)) [µM] | IC50 ([1]; read-out: IC50 of plasma membrane permeability (PMP)) [µM] | IC50 [2] [µM] | increase of plasma membrane permeability (PMP) ([1]; 100 μM) [fold] | increase of nuclear area (NA) ([1]; 3 mM) [%] | IC50 ([1]; listed as AAP, read-out: IC50 of cell number (CN)) [µM] | IC50 ([1]; listed as AAP, read-out: IC50 of mitochondrial mass (MS)) [µM] | IC50 ([1]; listed as AAP, read-out: IC50 of plasma membrane permeability (PMP)) [µM] | IC50 ([1]; Homo sapiens, HepG2, 24 h, read-out: IC50 of cell number (CN)) [µM] | IC50 ([1]; Homo sapiens, HepG2, 24 h, read-out: IC50 of mitochondrial mass (MS)) [µM] | IC50 ([1]; Homo sapiens, HepG2, 24 h, read-out: IC50 of plasma membrane permeability (PMP)) [µM]
N#CC(C#N)=NNc1ccc(OC(F)(F)F)cc1 [FCCP, P-fluoromethoxyphenylhydrazone] | shrunk | increase | 17.5 | 5.18 | 7.02 | 0.77 µM and 0.768 µM | 0.642 | 25.7 | 5.2 | – | – | – | – | – | – | – | –
CC(=O)Nc1ccc(O)cc1 [acetaminophen] | – | – | – | – | – | – | – | – | 1300 | 61.4 | 25.7 | 1840 | 9780 | 7.7 | 1840 | 9780 | 10
